{"source": "patent US10758465B2", "about": "“Synephrine compositions” (Follea International, priority 2017, dated 2020)", "origin": "cited, not measured here", "key": {"[1]": {"system": "alpha2-adrenoceptors", "conditions": "postjunctional alpha2-adrenoceptors"}, "[2]": {"system": "alpha1-adrenoceptors", "conditions": "postjunctional alpha1-adrenoceptors"}}}
{"smiles": "CNC[C@@H](O)c1ccc(O)cc1", "note": "[S-(+)-synephrine]", "values": [{"measurement": "potency relative to the (−) form", "setting": "[1]", "value": "one to two orders of magnitude less"}, {"measurement": "potency relative to the (−) form", "setting": "[2]", "value": "one to two orders of magnitude less"}]}
